ChEMBL document CHEMBL1201862, “PubChem BioAssay data set” (2004)
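Protocol summary: plate cells (96-well), add compound at 5 concentrations, incubate 48 h, interpolate endpoints linearly. GI50 = concentration required for 50% inhibition of growth.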 Activity calls are given as the source filed them. No stated cut-off is given here; in the data, active = GI50 up to about 1.1 µM and inactive = higher.

Key:
Test in all cases: inhibition of tumour cell growth, NCI panel, 48 h
[1] = tested on: SN12C
[2] = tested on: MCF7
[3] = tested on: OVCAR-3
[4] = tested on: SK-MEL-28
[5] = tested on: UO-31
[6] = tested on: TK-10
[7] = tested on: MDA-MB-231
[8] = tested on: A498
[9] = tested on: MDA-MB-435
[10] = tested on: NCI-H23
[11] = tested on: 786-0
[12] = tested on: HOP-62
[13] = tested on: OVCAR-4
[14] = tested on: PC-3
[15] = tested on: ACHN
[16] = tested on: UACC-257
[17] = tested on: IGROV-1
[18] = tested on: NCI-H226
[19] = tested on: HL-60
[20] = tested on: HCC 2998

Row | SMILES | GI50 [1] | GI50 [2] | GI50 [3] | GI50 [4] | GI50 [5] | GI50 [6] | GI50 [7] | GI50 [8] | GI50 [9] | GI50 [10] | GI50 [11] | GI50 [12] | GI50 [13] | GI50 [14] | GI50 [15] | GI50 [16] | GI50 [17] | GI50 [18] | GI50 [19] | GI50 [20]
1 | COC(=O)C1C2C=CC(C2)N1S(=O)(=O)c1ccccc1 (centres undefined) | > 100 µM (inactive) | > 100 µM (inactive) | > 100 µM (inactive) | > 100 µM (inactive) | > 100 µM (inactive) | > 100 µM (inactive) | > 100 µM (inactive) | > 100 µM (inactive) | > 100 µM (inactive) | > 100 µM (inactive) | > 100 µM (inactive) | > 100 µM (inactive) | > 100 µM (inactive) | > 100 µM (inactive) | > 100 µM (inactive) |  |  |  |  | 
2 | O=C(O)CCC(C(=O)O)N1C(=O)C2C3CCC(C3)C2C1=O (centres undefined) | > 100 µM (inactive) | > 100 µM (inactive) | > 100 µM (inactive) | > 100 µM (inactive) |  | > 100 µM (inactive) | > 100 µM (inactive) | > 100 µM (inactive) | > 100 µM (inactive) | > 100 µM (inactive) | > 100 µM (inactive) | > 100 µM (inactive) | > 100 µM (inactive) | > 100 µM (inactive) | > 100 µM (inactive) | > 100 µM (inactive) | > 100 µM (inactive) | > 100 µM (inactive) |  | 
3 | C1=N\CCNCC/N=C\c2ccc(cc2)OCc2cccc(n2)COc2ccc/1cc2 | > 100 µM (inactive) | > 100 µM (inactive) | > 100 µM (inactive) | > 100 µM (inactive) | > 100 µM (inactive) |  | 30.7 µM (inactive) | > 100 µM (inactive) | > 100 µM (inactive) | 66.7 µM (inactive) | 40.2 µM (inactive) | 21.4 µM (inactive) | 97.3 µM (inactive) | 78.2 µM (inactive) | 29.7 µM (inactive) | > 100 µM (inactive) | 66.7 µM (inactive) | > 100 µM (inactive) | > 100 µM (inactive) | 
4 | COc1ccc(Cn2c(=O)c(OS(=O)(=O)C(F)(F)F)c(C)c3cc4ccccc4cc32)cc1 | > 100 µM (inactive) | > 100 µM (inactive) | > 100 µM (inactive) | > 100 µM (inactive) | > 100 µM (inactive) | > 100 µM (inactive) | > 100 µM (inactive) |  | > 100 µM (inactive) | > 100 µM (inactive) | > 100 µM (inactive) | > 100 µM (inactive) | 88.7 µM (inactive) | > 100 µM (inactive) | > 100 µM (inactive) | 36 µM (inactive) | > 100 µM (inactive) | > 100 µM (inactive) | > 100 µM (inactive) | > 100 µM (inactive)
5 | N#CSc1[nH]cnc1C(N)=O | 27.9 µM (inactive) |  | > 100 µM (inactive) | 76.2 µM (inactive) | > 93.5 µM (inactive) | > 100 µM (inactive) | 55.7 µM (inactive) | > 100 µM (inactive) | > 100 µM (inactive) | > 100 µM (inactive) | 40.9 µM (inactive) | > 100 µM (inactive) | > 100 µM (inactive) | > 100 µM (inactive) | > 100 µM (inactive) | > 100 µM (inactive) | > 100 µM (inactive) | > 100 µM (inactive) | 2.8 µM (inactive) | > 100 µM (inactive)
6 | CCOC(=O)C1(C(=O)OCC)C[C@H](C)[C@](C)(O)C1 | > 100 µM (inactive) | > 100 µM (inactive) | > 100 µM (inactive) | > 100 µM (inactive) | > 100 µM (inactive) | > 100 µM (inactive) | > 100 µM (inactive) | > 100 µM (inactive) | > 100 µM (inactive) | > 100 µM (inactive) | > 100 µM (inactive) | > 100 µM (inactive) | > 100 µM (inactive) | > 100 µM (inactive) | > 100 µM (inactive) | > 100 µM (inactive) | > 100 µM (inactive) | > 100 µM (inactive) | 37.8 µM (inactive) | 
7 | O=c1c(Cl)nsnc1Cl | 20.2 µM (inactive) | 6.22 µM (inactive) | 5.69 µM (inactive) | 18.3 µM (inactive) | 6.4 µM (inactive) | 2.57 µM (inactive) | 19.3 µM (inactive) |  | 14.2 µM (inactive) | 23.3 µM (inactive) | 1.7 µM (inactive) | 18.7 µM (inactive) | 5.15 µM (inactive) | 16.2 µM (inactive) | 6.1 µM (inactive) | 10.4 µM (inactive) | 16.4 µM (inactive) | 22.9 µM (inactive) | 0.787 µM (active) | 19.4 µM (inactive)
8 | O=C(O)C1Cc2ccccc2OC1=O (centres undefined) | > 100 µM (inactive) | > 100 µM (inactive) | > 100 µM (inactive) | > 100 µM (inactive) | > 100 µM (inactive) | > 100 µM (inactive) | > 100 µM (inactive) |  | > 100 µM (inactive) | 8.69 µM (inactive) | > 100 µM (inactive) | > 100 µM (inactive) |  | > 100 µM (inactive) | > 100 µM (inactive) | > 100 µM (inactive) | > 100 µM (inactive) | > 100 µM (inactive) |  | > 100 µM (inactive)
9 | O=C1Oc2ccccc2C(=O)/C1=C/N1C(=O)CNC1=S | > 100 µM (inactive) | > 100 µM (inactive) | > 100 µM (inactive) | > 100 µM (inactive) | 23 µM (inactive) | > 100 µM (inactive) | > 100 µM (inactive) |  | > 100 µM (inactive) | > 100 µM (inactive) | > 100 µM (inactive) | > 100 µM (inactive) | > 100 µM (inactive) | > 100 µM (inactive) | 56.8 µM (inactive) | > 100 µM (inactive) | > 100 µM (inactive) | > 100 µM (inactive) | 44 µM (inactive) | > 100 µM (inactive)
10 | N=c1oc2ccc3ccccc3c2cc1C(N)=O | 39.8 µM (inactive) |  | 72.9 µM (inactive) | 44.5 µM (inactive) |  |  | 25.9 µM (inactive) | 43.7 µM (inactive) | 53.6 µM (inactive) | 48.6 µM (inactive) | 34 µM (inactive) | 48.3 µM (inactive) | 58.6 µM (inactive) | 18.7 µM (inactive) | 24.9 µM (inactive) | > 100 µM (inactive) | 21.6 µM (inactive) | 15.3 µM (inactive) | 39.2 µM (inactive) | 49.3 µM (inactive)
11 | CC(=O)OCC1OC(n2c(C)c(/N=N/c3ccccc3)c(C)c(C#N)c2=S)C(OC(C)=O)C(OC(C)=O)C1OC(C)=O (centres undefined) | 81.5 µM (inactive) | > 100 µM (inactive) | > 100 µM (inactive) | > 100 µM (inactive) | > 100 µM (inactive) | 29 µM (inactive) | 20.6 µM (inactive) |  | > 100 µM (inactive) | > 100 µM (inactive) | 7.38 µM (inactive) | 14.4 µM (inactive) | 48.9 µM (inactive) | > 100 µM (inactive) | > 100 µM (inactive) | > 100 µM (inactive) | 99.1 µM (inactive) |  | > 100 µM (inactive) | > 100 µM (inactive)
12 | O=C1/C(=N\NC(=S)Nc2ccc(Cl)cc2)c2cc([N+](=O)[O-])ccc2N1CN1CCOCC1 | 4.12 µM (inactive) | 5.24 µM (inactive) | 3.99 µM (inactive) | 10.9 µM (inactive) | 3.78 µM (inactive) | 12.2 µM (inactive) | 15 µM (inactive) |  | 6.38 µM (inactive) | 2.08 µM (inactive) | 4.41 µM (inactive) | < 0.01 µM (active) | 10 µM (inactive) | 10.2 µM (inactive) | 4.73 µM (inactive) | 13.2 µM (inactive) | 4.19 µM (inactive) | 4.81 µM (inactive) | 0.502 µM (active) | 
13 | CC(=O)OCC(OC(C)=O)C1C[C@H]2O[C@@H]3[C@H](C[C@H]2O1)O[C@@]1(C[C@@H]3C)C[C@H](C)[C@@H]2O[C@]3(C[C@@H]2O1)C[C@H]1O[C@H]2[C@H](C)[C@H]4OC(=O)CC5CC[C@H]6OC7[C@H]8O[C@]9(CC[C@H]%10CC(O)(CO)[C@H](CC[C@H]%11C[C@@H](C)C(O)(CO)C(C[C@@H]4O[C@H]2C[C@H]1O3)O%11)O%10)CC8O[C@@H]7[C@@H](O9)[C@H]6O5 (some centres undefined) | 0.0227 µM (active) | 0.00281 µM (active) | 0.00655 µM (active) | 0.0303 µM (active) | 0.0226 µM (active) |  | 0.0705 µM (active) | > 0.214 µM (active) | 0.000853 µM (active) | 0.00496 µM (active) | 0.00532 µM (active) | 0.0622 µM (active) |  | 0.00614 µM (active) | 0.0479 µM (active) | 0.00555 µM (active) | 0.00436 µM (active) | 0.0122 µM (active) |  | 0.00532 µM (active)
14 | COC1C(O)=C2C(=O)O/C(C)=C/C=C/C=C/C=C\CC(c3ccccc3)NC(=O)\C=C/C=C\C=C\C=C\[C@@]2(C)[C@@H]1O (some centres undefined) | 0.0986 µM (active) | < 0.01 µM (active) | < 0.0189 µM (active) | 0.0155 µM (active) | < 0.0161 µM (active) | < 0.0361 µM (active) | < 0.01 µM (active) | 0.0129 µM (active) | < 0.01 µM (active) | 0.0144 µM (active) | 0.017 µM (active) | < 0.0334 µM (active) | 0.0444 µM (active) | < 0.01 µM (active) | < 0.01 µM (active) | < 0.0129 µM (active) | < 0.0211 µM (active) | 0.0175 µM (active) | < 0.01 µM (active) | 
15 | CC(C)=CC[C@H]1C[C@]2(CC=C(C)C)C(=O)[C@@](CC=C(C)C)(C(=O)C(C(=O)c3ccccc3)=C2O)C1(C)C [6-EPI-CLUSIANONE] | 3.49 µM (inactive) | 4.59 µM (inactive) |  | 10.2 µM (inactive) | 3.44 µM (inactive) | 5.15 µM (inactive) | 6.01 µM (inactive) | 9.46 µM (inactive) | 5.4 µM (inactive) | 7.67 µM (inactive) | 5.51 µM (inactive) | 6.87 µM (inactive) | 5.15 µM (inactive) | 4.78 µM (inactive) | 4.88 µM (inactive) | 4.71 µM (inactive) | 3.82 µM (inactive) | 14.1 µM (inactive) |  | 3.85 µM (inactive)
